{"source": "patent US20260144875A1", "about": "“COMPOSITIONS AND METHODS FOR CROSSLINKING STRUCTURAL PROTEINS” (ADS Therapeutics LLC, priority 2022, published 2026)", "experiment": "Stability of riboflavin tetrabutyrate in organic solvents", "format": "physicochemical", "conditions": "RTB", "text": "The stability of riboflavin tetrabutyrate (RTB) in various solvents was investigated. Using similar sample analysis methods described in Examples 1a-1c, the stability of RTB in formulations of MCT, F6H8, and combinations were monitored at various temperatures.", "key": {"[1]": {"conditions": "Sample X1, 0.2%, MCT 100%, F6H8 0%, 2-8° C."}, "[2]": {"conditions": "Sample X2, 0.2%, MCT 100%, F6H8 0%, 25° C."}, "[3]": {"conditions": "Sample X3, 0.2%, MCT 100%, F6H8 0%, 40° C."}, "[4]": {"conditions": "Sample X4, 0.1%, MCT 70%, F6H8 30%, 2-8° C."}, "[5]": {"conditions": "Sample X5, 0.1%, MCT 70%, F6H8 30%, 25° C."}, "[6]": {"conditions": "Sample X6, 0.1%, MCT 70%, F6H8 30%, 40° C."}, "[7]": {"conditions": "Sample X7, 0.1%, MCT 50%, F6H8 50%, 2-8° C."}, "[8]": {"conditions": "Sample X8, 0.1%, MCT 50%, F6H8 50%, 25° C."}, "[9]": {"conditions": "Sample X9, 0.1%, MCT 50%, F6H8 50%, 40° C."}}}
{"smiles": "CCCC(=O)OC[C@@H](OC(=O)CCC)[C@@H](OC(=O)CCC)[C@H](Cn1c2nc(=O)[nH]c(=O)c-2nc2cc(C)c(C)cc21)OC(=O)CCC", "note": "[RTB, (2R,3S,4S)-5-(7,8-dimethyl-2,4-dioxo-3,4-dihydrobenzo[g]pteridin-10(2H)-yl) pentane-1,2,3,4-tetrayl tetrabutyrate]", "values": [{"measurement": "Appearance (clear/precip.) 0 hr", "setting": "[1]", "result": "clear"}, {"measurement": "Conc. 0 hr", "setting": "[1]", "result": "2.055, mg/mL"}, {"measurement": "Appearance (clear/precip.) 1 Month", "setting": "[1]", "result": "clear"}, {"measurement": "Conc. 1 Month", "setting": "[1]", "result": "1.832, mg/mL"}, {"measurement": "Appearance (clear/precip.) 14 days", "setting": "[1]", "result": "clear"}, {"measurement": "Conc. 14 days", "setting": "[1]", "result": "1.837, mg/mL"}, {"measurement": "Appearance (clear/precip.) 0 hr", "setting": "[2]", "result": "clear"}, {"measurement": "Conc. 0 hr", "setting": "[2]", "result": "2.055, mg/mL"}, {"measurement": "Appearance (clear/precip.) 1 Month", "setting": "[2]", "result": "clear"}, {"measurement": "Conc. 1 Month", "setting": "[2]", "result": "1.817, mg/mL"}, {"measurement": "Appearance (clear/precip.) 14 days", "setting": "[2]", "result": "clear"}, {"measurement": "Conc. 14 days", "setting": "[2]", "result": "1.888, mg/mL"}, {"measurement": "Appearance (clear/precip.) 0 hr", "setting": "[3]", "result": "clear"}, {"measurement": "Conc. 0 hr", "setting": "[3]", "result": "2.055, mg/mL"}, {"measurement": "Appearance (clear/precip.) 1 Month", "setting": "[3]", "result": "clear"}, {"measurement": "Conc. 1 Month", "setting": "[3]", "result": "1.833, mg/mL"}, {"measurement": "Appearance (clear/precip.) 14 days", "setting": "[3]", "result": "clear"}, {"measurement": "Conc. 14 days", "setting": "[3]", "result": "1.958, mg/mL"}, {"measurement": "Appearance (clear/precip.) 0 hr", "setting": "[4]", "result": "clear"}, {"measurement": "Conc. 0 hr", "setting": "[4]", "result": "1.077, mg/mL"}, {"measurement": "Appearance (clear/precip.) 1 Month", "setting": "[4]", "result": "clear"}, {"measurement": "Conc. 1 Month", "setting": "[4]", "result": "0.960, mg/mL"}, {"measurement": "Appearance (clear/precip.) 14 days", "setting": "[4]", "result": "clear"}, {"measurement": "Conc. 14 days", "setting": "[4]", "result": "1.015, mg/mL"}, {"measurement": "Appearance (clear/precip.) 0 hr", "setting": "[5]", "result": "clear"}, {"measurement": "Conc. 0 hr", "setting": "[5]", "result": "1.077, mg/mL"}, {"measurement": "Appearance (clear/precip.) 1 Month", "setting": "[5]", "result": "clear"}, {"measurement": "Conc. 1 Month", "setting": "[5]", "result": "0.953, mg/mL"}, {"measurement": "Appearance (clear/precip.) 14 days", "setting": "[5]", "result": "clear"}, {"measurement": "Conc. 14 days", "setting": "[5]", "result": "1.012, mg/mL"}, {"measurement": "Appearance (clear/precip.) 0 hr", "setting": "[6]", "result": "clear"}, {"measurement": "Conc. 0 hr", "setting": "[6]", "result": "1.077, mg/mL"}, {"measurement": "Appearance (clear/precip.) 1 Month", "setting": "[6]", "result": "clear"}, {"measurement": "Conc. 1 Month", "setting": "[6]", "result": "0.962, mg/mL"}, {"measurement": "Appearance (clear/precip.) 14 days", "setting": "[6]", "result": "clear"}, {"measurement": "Conc. 14 days", "setting": "[6]", "result": "1.027, mg/mL"}, {"measurement": "Appearance (clear/precip.) 0 hr", "setting": "[7]", "result": "clear"}, {"measurement": "Conc. 0 hr", "setting": "[7]", "result": "1.123, mg/mL"}, {"measurement": "Appearance (clear/precip.) 1 Month", "setting": "[7]", "result": "precip."}, {"measurement": "Conc. 1 Month", "setting": "[7]", "result": "0.848, mg/mL"}, {"measurement": "Appearance (clear/precip.) 14 days", "setting": "[7]", "result": "precip."}, {"measurement": "Conc. 14 days", "setting": "[7]", "result": "0.976, mg/mL"}, {"measurement": "Appearance (clear/precip.) 0 hr", "setting": "[8]", "result": "clear"}, {"measurement": "Conc. 0 hr", "setting": "[8]", "result": "1.123, mg/mL"}, {"measurement": "Appearance (clear/precip.) 1 Month", "setting": "[8]", "result": "clear"}, {"measurement": "Conc. 1 Month", "setting": "[8]", "result": "0.993, mg/mL"}, {"measurement": "Appearance (clear/precip.) 14 days", "setting": "[8]", "result": "clear"}, {"measurement": "Conc. 14 days", "setting": "[8]", "result": "1.056, mg/mL"}, {"measurement": "Appearance (clear/precip.) 0 hr", "setting": "[9]", "result": "clear"}, {"measurement": "Conc. 0 hr", "setting": "[9]", "result": "1.123, mg/mL"}, {"measurement": "Appearance (clear/precip.) 1 Month", "setting": "[9]", "result": "clear"}, {"measurement": "Conc. 1 Month", "setting": "[9]", "result": "0.984, mg/mL"}, {"measurement": "Appearance (clear/precip.) 14 days", "setting": "[9]", "result": "clear"}, {"measurement": "Conc. 14 days", "setting": "[9]", "result": "1.054, mg/mL"}]}
